Assay results as given in article PMC4925160, “Mode of action of DNA-competitive small molecule inhibitors of tyrosyl DNA phosphodiesterase 2” (Biochemical Journal, 2016).

Molecular target: T1, tyrosyl-DNA phosphodiesterase 2 (hTDP2-CAT) (Homo sapiens, UniProt O95551, C273S)
T1 construct: gene TDP2; catalytic domain, residues 113–362
T1 sequence (O95551 113-362 C273S): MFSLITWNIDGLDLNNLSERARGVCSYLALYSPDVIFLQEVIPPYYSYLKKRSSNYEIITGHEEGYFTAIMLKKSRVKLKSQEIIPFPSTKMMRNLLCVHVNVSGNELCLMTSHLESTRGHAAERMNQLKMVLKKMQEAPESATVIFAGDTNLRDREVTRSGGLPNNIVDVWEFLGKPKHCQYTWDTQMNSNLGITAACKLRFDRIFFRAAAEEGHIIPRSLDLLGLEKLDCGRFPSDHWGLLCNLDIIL
Assay: fluorescence-based […]'-phosphotyrosyl oligonucleotide enzyme assay
Assay type: biochemical

SMILES: N#Cc1ccc2cc3c(=O)[nH]c(=O)nc-3n(-c3cccc(CO)c3)c2c1 [compound 149, 149]
- IC50: 489 nM
